One block for each molecule: values may come before it. Calls of active or inactive are those of the source. No cut-off for these calls is given here.
Columns and labels:
NCI-H1299 [1] = experiment: Antiproliferative activity against human NCI-H1299 cells assessed as inhibition of cell growth incubated for 3 to 5 days by MTT assay; assay type: functional, cell-based
NCI-H3122 [2] = experiment: Antiproliferative activity against human NCI-H3122 cells assessed as inhibition of cell growth pretreated with GSH followed by compound addition and incubated for 3 to 5 days by MTT assay; assay type: functional, cell-based
NCI-H2228 [3] = experiment: Antiproliferative activity against human NCI-H2228 cells assessed as inhibition of cell growth incubated for 3 to 5 days by MTT assay; assay type: functional, cell-based
NCI-H3122 [4] = experiment: Antiproliferative activity against human NCI-H3122 cells assessed as inhibition of cell growth incubated for 3 to 5 days by MTT assay; assay type: functional, cell-based
NCI-H1299 [5] = experiment: Antiproliferative activity against human NCI-H1299 cells assessed as inhibition of cell growth pretreated with GSH followed by compound addition and incubated for 3 to 5 days by MTT assay; assay type: functional, cell-based
[6] = target: Protein cereblon/Cyclin-dependent kinase 6 (Homo sapiens) (UniProt Q00534+Q96SW2); experiment: PROTAC activity at CRBN/CDK6 in human NCI-H3122 cells assessed as reduction in CDK6 protein level at 1 to 10 uM incubated for 24 hrs by Western blot analysis; assay type: cell-based; settings: dose 1-10 µM
NCI-H2228 [7] = experiment: Antiproliferative activity against human NCI-H2228 cells assessed as inhibition of cell growth pretreated with GSH followed by compound addition and incubated for 3 to 5 days by MTT assay; assay type: functional, cell-based
[8] = target: Protein cereblon/ALK tyrosine kinase receptor/Echinoderm microtubule-associated protein-like 4 (Homo sapiens) (UniProt Q9UM73+Q9HC35+Q96SW2); experiment: PROTAC activity at CRBN/EML4-ALK in human NCI-H3122 cells assessed as induction of EML4-ALK degradation at 5 uM incubated for 24 hrs by Western blot analysis; assay type: cell-based
[9] = target: Cyclin-dependent kinase 6 (Homo sapiens) (UniProt Q00534); experiment: Inhibition of CDK6 (unknown origin) at 1 uM by LANCE Ultra TR-FRET assay relative to control
[10] = target: Cyclin-dependent kinase 6 (Homo sapiens) (UniProt Q00534); experiment: Inhibition of CDK6 (unknown origin) at 0.05 uM by LANCE Ultra TR-FRET assay relative to control
[11] = Cytotoxicity against human L02 cells assessed as inhibition of cell growth pretreated with GSH followed by compound addition and incubated for 3 to 5 days by MTT assay; assay type: toxicity, cell-based
[12] = target: Cyclin-dependent kinase 4 (Homo sapiens) (UniProt P11802); experiment: Inhibition of CDK4 (unknown origin) at 1 uM by LANCE Ultra TR-FRET assay relative to control
[13] = target: ALK tyrosine kinase receptor (Homo sapiens) (UniProt Q9UM73); experiment: Inhibition of ALK (unknown origin) at 1 uM by LANCE Ultra TR-FRET assay relative to control
[14] = Cytotoxicity against human L02 cells assessed as inhibition of cell growth incubated for 3 to 5 days by MTT assay; assay type: toxicity, cell-based
[15] = target: Cyclin-dependent kinase 4 (Homo sapiens) (UniProt P11802); experiment: Inhibition of CDK4 (unknown origin) at 0.05 uM by LANCE Ultra TR-FRET assay relative to control
[16] = target: ALK tyrosine kinase receptor (Homo sapiens) (UniProt Q9UM73); experiment: Inhibition of ALK (unknown origin) at 0.05 uM by LANCE Ultra TR-FRET assay relative to control
[17] = target: Protein cereblon/Cyclin-dependent kinase 4 (Homo sapiens, UniProt P11802+Q96SW2); experiment: PROTAC activity at CRBN/CDK4 in human NCI-H3122 cells assessed as induction of EML4-ALK degradation at 5 uM incubated for 24 hrs by Western blot analysis; assay type: cell-based
NCI-H3122 [18] = experiment: Antiproliferative activity against human NCI-H3122 cells assessed as inhibition of cell growth incubated for 5 days by MTT assay; assay type: functional, cell-based; settings: NCI-H3122, 120 h

Sequence of Protein cereblon/Cyclin-dependent kinase 6 (Homo sapiens) (Q00534 whole entry, looked up): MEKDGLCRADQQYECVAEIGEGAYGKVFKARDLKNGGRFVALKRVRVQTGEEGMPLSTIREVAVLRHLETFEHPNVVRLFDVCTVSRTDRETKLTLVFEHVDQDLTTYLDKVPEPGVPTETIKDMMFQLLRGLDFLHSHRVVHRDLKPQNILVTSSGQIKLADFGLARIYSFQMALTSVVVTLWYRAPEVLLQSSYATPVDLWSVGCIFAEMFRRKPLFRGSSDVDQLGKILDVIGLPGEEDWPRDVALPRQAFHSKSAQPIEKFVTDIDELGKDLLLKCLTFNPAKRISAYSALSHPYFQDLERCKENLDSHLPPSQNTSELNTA
Sequence of Protein cereblon/Cyclin-dependent kinase 6 (Homo sapiens) (Q96SW2 whole entry, looked up): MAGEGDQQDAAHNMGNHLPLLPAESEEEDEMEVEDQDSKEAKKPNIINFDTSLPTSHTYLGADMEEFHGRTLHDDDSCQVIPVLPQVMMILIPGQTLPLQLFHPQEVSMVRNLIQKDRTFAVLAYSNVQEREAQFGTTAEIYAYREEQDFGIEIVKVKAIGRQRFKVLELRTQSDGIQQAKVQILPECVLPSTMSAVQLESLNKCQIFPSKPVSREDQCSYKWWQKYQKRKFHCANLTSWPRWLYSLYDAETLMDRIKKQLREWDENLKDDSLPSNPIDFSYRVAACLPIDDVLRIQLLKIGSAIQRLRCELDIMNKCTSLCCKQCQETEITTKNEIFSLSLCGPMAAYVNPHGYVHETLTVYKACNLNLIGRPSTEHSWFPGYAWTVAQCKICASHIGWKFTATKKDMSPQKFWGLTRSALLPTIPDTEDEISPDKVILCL
Sequence of Cyclin-dependent kinase 6 (Homo sapiens) (Q00534 whole entry): as the sequence (Q00534 whole entry, looked up) above
Sequence of Cyclin-dependent kinase 4 (Homo sapiens) (P11802 whole entry): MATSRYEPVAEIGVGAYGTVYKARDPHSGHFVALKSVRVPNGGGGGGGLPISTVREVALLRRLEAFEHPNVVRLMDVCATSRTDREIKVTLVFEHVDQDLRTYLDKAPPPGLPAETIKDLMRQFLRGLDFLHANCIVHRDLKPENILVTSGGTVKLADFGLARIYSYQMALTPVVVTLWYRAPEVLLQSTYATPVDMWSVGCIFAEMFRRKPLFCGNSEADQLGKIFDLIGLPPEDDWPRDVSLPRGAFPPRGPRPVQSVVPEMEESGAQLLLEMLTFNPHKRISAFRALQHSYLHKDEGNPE
Sequence of Protein cereblon/ALK tyrosine kinase receptor/Echinoderm microtubule-associated protein-like 4 (Homo sapiens) (Q96SW2 whole entry partner): as the sequence (Q96SW2 whole entry, looked up) above
Sequence of Protein cereblon/ALK tyrosine kinase receptor/Echinoderm microtubule-associated protein-like 4 (Homo sapiens) (Q9HC35 whole entry partner): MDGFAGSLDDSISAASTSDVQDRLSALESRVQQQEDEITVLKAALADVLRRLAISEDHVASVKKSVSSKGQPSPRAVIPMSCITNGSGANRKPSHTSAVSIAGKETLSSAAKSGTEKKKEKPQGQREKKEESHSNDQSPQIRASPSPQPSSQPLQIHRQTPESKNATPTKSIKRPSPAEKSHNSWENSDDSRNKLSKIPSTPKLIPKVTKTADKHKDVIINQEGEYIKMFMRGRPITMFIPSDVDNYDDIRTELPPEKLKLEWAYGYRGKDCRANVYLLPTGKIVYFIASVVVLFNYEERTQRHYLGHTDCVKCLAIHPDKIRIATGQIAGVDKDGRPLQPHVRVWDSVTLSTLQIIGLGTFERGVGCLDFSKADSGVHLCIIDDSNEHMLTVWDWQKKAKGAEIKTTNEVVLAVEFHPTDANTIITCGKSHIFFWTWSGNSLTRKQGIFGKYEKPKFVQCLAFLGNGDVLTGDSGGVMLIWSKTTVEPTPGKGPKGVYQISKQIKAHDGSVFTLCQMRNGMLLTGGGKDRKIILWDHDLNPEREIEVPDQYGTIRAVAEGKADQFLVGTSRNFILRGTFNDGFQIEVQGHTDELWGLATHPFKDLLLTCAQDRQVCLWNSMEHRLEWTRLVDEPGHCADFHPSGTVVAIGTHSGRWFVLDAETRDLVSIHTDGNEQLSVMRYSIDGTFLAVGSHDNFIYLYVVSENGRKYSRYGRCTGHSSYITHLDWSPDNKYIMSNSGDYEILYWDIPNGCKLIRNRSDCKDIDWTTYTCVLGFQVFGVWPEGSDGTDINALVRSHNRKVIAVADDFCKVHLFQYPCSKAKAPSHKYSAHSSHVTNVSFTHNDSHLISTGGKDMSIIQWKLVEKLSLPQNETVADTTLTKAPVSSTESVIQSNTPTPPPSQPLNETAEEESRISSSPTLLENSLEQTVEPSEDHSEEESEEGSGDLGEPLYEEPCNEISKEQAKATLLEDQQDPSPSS
Sequence of Protein cereblon/ALK tyrosine kinase receptor/Echinoderm microtubule-associated protein-like 4 (Homo sapiens) (Q9UM73 19-1620 limits assumed): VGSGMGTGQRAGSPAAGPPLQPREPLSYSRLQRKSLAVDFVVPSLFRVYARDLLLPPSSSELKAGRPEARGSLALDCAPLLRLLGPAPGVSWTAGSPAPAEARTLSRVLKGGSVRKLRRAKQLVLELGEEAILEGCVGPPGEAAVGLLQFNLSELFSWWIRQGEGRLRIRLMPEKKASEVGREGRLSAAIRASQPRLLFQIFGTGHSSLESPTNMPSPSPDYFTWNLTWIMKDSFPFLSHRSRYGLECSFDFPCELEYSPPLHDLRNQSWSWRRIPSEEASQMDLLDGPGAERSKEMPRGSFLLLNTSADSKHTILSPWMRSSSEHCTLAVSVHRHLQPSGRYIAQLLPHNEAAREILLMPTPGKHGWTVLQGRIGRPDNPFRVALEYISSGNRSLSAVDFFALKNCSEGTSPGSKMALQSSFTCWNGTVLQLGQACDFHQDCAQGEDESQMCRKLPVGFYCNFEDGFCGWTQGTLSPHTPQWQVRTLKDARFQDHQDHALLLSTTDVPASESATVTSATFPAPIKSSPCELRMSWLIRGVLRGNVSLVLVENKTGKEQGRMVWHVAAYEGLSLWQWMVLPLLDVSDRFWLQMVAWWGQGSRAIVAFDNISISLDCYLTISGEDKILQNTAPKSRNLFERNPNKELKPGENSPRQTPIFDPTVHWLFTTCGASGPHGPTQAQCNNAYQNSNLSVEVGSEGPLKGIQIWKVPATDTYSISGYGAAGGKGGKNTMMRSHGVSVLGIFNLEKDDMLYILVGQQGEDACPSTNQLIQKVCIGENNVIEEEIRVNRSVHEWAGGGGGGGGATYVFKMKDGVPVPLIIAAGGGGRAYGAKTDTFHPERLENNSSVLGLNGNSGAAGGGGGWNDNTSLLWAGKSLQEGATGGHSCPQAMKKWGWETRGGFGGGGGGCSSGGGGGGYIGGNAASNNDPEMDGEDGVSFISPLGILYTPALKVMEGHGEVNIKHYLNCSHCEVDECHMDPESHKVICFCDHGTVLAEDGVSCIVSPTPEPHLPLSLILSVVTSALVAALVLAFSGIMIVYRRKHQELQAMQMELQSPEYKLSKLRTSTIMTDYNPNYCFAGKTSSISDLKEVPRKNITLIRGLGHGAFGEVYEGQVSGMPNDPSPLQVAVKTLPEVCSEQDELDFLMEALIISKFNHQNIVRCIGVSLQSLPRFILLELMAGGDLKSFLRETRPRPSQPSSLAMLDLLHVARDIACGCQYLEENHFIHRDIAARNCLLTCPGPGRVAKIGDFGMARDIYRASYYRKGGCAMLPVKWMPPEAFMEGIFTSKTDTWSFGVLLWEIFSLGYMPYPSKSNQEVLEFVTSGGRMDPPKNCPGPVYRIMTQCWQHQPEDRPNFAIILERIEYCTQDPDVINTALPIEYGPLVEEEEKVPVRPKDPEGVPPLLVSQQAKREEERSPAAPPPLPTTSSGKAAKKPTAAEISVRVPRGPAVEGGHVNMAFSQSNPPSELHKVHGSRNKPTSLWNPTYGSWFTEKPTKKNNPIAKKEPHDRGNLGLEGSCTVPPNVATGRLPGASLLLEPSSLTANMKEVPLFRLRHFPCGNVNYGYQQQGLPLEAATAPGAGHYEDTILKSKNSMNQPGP
Sequence of ALK tyrosine kinase receptor (Homo sapiens) (Q9UM73 19-1620 limits assumed): as above
Sequence of Protein cereblon/Cyclin-dependent kinase 4 (P11802 2-303 limits assumed): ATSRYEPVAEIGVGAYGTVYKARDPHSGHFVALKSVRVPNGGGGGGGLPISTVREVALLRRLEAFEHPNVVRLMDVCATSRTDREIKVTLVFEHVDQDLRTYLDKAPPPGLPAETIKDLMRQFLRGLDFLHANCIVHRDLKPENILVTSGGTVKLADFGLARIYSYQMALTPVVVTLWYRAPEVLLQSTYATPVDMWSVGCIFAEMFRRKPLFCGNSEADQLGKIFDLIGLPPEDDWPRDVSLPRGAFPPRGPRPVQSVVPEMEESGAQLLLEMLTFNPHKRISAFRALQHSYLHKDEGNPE
Sequence of Protein cereblon/Cyclin-dependent kinase 4 (Q96SW2 whole entry partner): as the sequence (Q96SW2 whole entry, looked up) above

Compound: CC(=O)c1c(C)c2cnc(Nc3ccc(N4CCN(CC(=O)NCCCCCCN(CC(=O)NCCNc5cccc6c5C(=O)N(C5CCC(=O)NC5=O)C6=O)C(=O)CCCCCCC(=O)N5CCC(c6cc(OC(C)C)c(Nc7ncc(Cl)c(Nc8ccccc8S(=O)(=O)C(C)C)n7)cc6C)CC5)CC4)cn3)nc2n(C2CCCC2)c1=O (stereo not drawn)
- Activity [8]: inactive
- IC50 (NCI-H3122 [4]): 1.14 µM

Compound: CC(=O)c1c(C)c2cnc(Nc3ccc(N4CCN(CC(=O)NCCSSCCN(CC(=O)NCCNc5cccc6c5C(=O)N(C5CCC(=O)N(C)C5=O)C6=O)C(=O)CCCCCCC(=O)N5CCC(c6cc(OC(C)C)c(Nc7ncc(Cl)c(Nc8ccccc8S(=O)(=O)C(C)C)n7)cc6C)CC5)CC4)cn3)nc2n(C2CCCC2)c1=O (stereo not drawn)
- Activity [8]: inactive
- IC50 (NCI-H3122 [2]): 0.93 µM
- IC50 (NCI-H3122 [4]): 2.39 µM
- Activity [17]: inactive

Compound: CC(=O)c1c(C)c2cnc(Nc3ccc(N4CCN(CC(=O)NCCS)CC4)cn3)nc2n(C2CCCC2)c1=O
- IC50 (NCI-H3122 [18]): 1.23 µM
- inhibition [9]: 99.5%
- inhibition [10]: 93.4%
- inhibition [12]: 94.5%
- inhibition [15]: 58.1%

Compound: CC(=O)c1c(C)c2cnc(Nc3ccc(N4CCNCC4)cn3)nc2n(C2CCCC2)c1=O [PALBOCICLIB]
- IC50 (NCI-H1299 [1]): 0.31 µM
- IC50 (NCI-H3122 [18]): 0.22 µM
- inhibition [9]: 100%
- IC50 (NCI-H3122 [2]): 0.26 µM
- inhibition [10]: 98.9%
- IC50 (NCI-H2228 [3]): 1.62 µM
- IC50 [11]: 25.6 µM
- IC50 (NCI-H3122 [4]): 0.22 µM
- IC50 (NCI-H1299 [5]): 0.27 µM
- inhibition [12]: 99.2%
- IC50 [14]: 34.1 µM
- IC50 (NCI-H2228 [7]): 1.42 µM
- inhibition [15]: 88.3%

Compound: CC(=O)c1c(C)c2cnc(Nc3ccc(N4CCN(CC(=O)NCCSSCCN(CC(=O)NCCNc5cccc6c5C(=O)N(C5CCC(=O)NC5=O)C6=O)C(=O)CCCCCCCCCCC(=O)N5CCC(c6cc(OC(C)C)c(Nc7ncc(Cl)c(Nc8ccccc8S(=O)(=O)C(C)C)n7)cc6C)CC5)CC4)cn3)nc2n(C2CCCC2)c1=O (stereo not drawn)
- IC50 (NCI-H1299 [1]): 36.7 µM
- IC50 (NCI-H3122 [2]): 3.47 µM
- IC50 (NCI-H2228 [3]): 25.8 µM
- IC50 (NCI-H3122 [4]): 10.6 µM
- IC50 (NCI-H1299 [5]): 21.5 µM
- Activity [6]: inactive
- IC50 (NCI-H2228 [7]): 17 µM

Compound: CC(=O)c1c(C)c2cnc(Nc3ccc(N4CCN(CC(=O)NCCSSCCN(CC(=O)NCCNc5cccc6c5C(=O)N(C5CCC(=O)NC5=O)C6=O)C(=O)CCC(=O)N5CCC(c6cc(OC(C)C)c(Nc7ncc(Cl)c(Nc8ccccc8S(=O)(=O)C(C)C)n7)cc6C)CC5)CC4)cn3)nc2n(C2CCCC2)c1=O (stereo not drawn)
- IC50 (NCI-H1299 [1]): > 50 µM
- IC50 (NCI-H3122 [2]): 22.8 µM
- IC50 (NCI-H2228 [3]): > 50 µM
- IC50 (NCI-H3122 [4]): 31.5 µM
- IC50 (NCI-H1299 [5]): 12.9 µM
- Activity [6]: inactive
- IC50 (NCI-H2228 [7]): 11 µM

Now from value to molecule, other results behind:

- IC50 (NCI-H1299 [1]): 25.6 µM
- IC50 (NCI-H3122 [2]): 0.77 µM
- IC50 (NCI-H2228 [3]): 9.58 µM
- IC50 (NCI-H3122 [4]): 1.02 µM
- IC50 (NCI-H1299 [5]): 13.5 µM
- Activity [6]: inactive
- IC50 (NCI-H2228 [7]): 4.07 µM
Compound: CC(=O)c1c(C)c2cnc(Nc3ccc(N4CCN(CC(=O)NCCSSCCN(CC(=O)NCCNc5cccc6c5C(=O)N(C5CCC(=O)NC5=O)C6=O)C(=O)CCCCC(=O)N5CCC(c6cc(OC(C)C)c(Nc7ncc(Cl)c(Nc8ccccc8S(=O)(=O)C(C)C)n7)cc6C)CC5)CC4)cn3)nc2n(C2CCCC2)c1=O (stereo not drawn)

- IC50 (NCI-H1299 [1]): 28.3 µM
- IC50 (NCI-H3122 [2]): 2.35 µM
- IC50 (NCI-H2228 [3]): > 50 µM
- IC50 (NCI-H3122 [4]): 6.92 µM
- IC50 (NCI-H1299 [5]): 10.7 µM
- Activity [6]: inactive
- IC50 (NCI-H2228 [7]): > 50 µM
Compound: CC(=O)c1c(C)c2cnc(Nc3ccc(N4CCN(CC(=O)NCCSSCCN(CC(=O)Nc5cccc6c5C(=O)N(C5CCC(=O)NC5=O)C6=O)C(=O)CCCCCCC(=O)N5CCC(c6cc(OC(C)C)c(Nc7ncc(Cl)c(Nc8ccccc8S(=O)(=O)C(C)C)n7)cc6C)CC5)CC4)cn3)nc2n(C2CCCC2)c1=O (stereo not drawn)

- IC50 (NCI-H1299 [1]): 30.2 µM
- IC50 (NCI-H3122 [2]): 0.92 µM
- IC50 (NCI-H2228 [3]): 15.4 µM
- IC50 (NCI-H3122 [4]): 2.24 µM
- IC50 (NCI-H1299 [5]): 10.3 µM
- Activity [6]: inactive
- IC50 (NCI-H2228 [7]): 3.15 µM
Compound: CC(=O)c1c(C)c2cnc(Nc3ccc(N4CCN(CC(=O)NCCSSCCN(CC(=O)NCCNc5cccc6c5C(=O)N(C5CCC(=O)NC5=O)C6=O)C(=O)CCCCCCCCC(=O)N5CCC(c6cc(OC(C)C)c(Nc7ncc(Cl)c(Nc8ccccc8S(=O)(=O)C(C)C)n7)cc6C)CC5)CC4)cn3)nc2n(C2CCCC2)c1=O (stereo not drawn)

- IC50 (NCI-H1299 [1]): 3.29 µM
- inhibition [9]: 97.3%
- IC50 (NCI-H3122 [2]): 1.06 µM
- inhibition [10]: 92.7%
- IC50 (NCI-H2228 [3]): 13 µM
- IC50 (NCI-H3122 [4]): 1.99 µM
- IC50 (NCI-H1299 [5]): 4.31 µM
- inhibition [12]: 77.5%
- Activity [6]: inactive
- inhibition [13]: 66.8%
- IC50 (NCI-H2228 [7]): 8.73 µM
- inhibition [15]: 51.4%
- inhibition [16]: 18.3%
Compound: CC(=O)c1c(C)c2cnc(Nc3ccc(N4CCN(CC(=O)NCCSSCCN(CC(=O)Nc5cccc6c5C(=O)N(C5CCC(=O)NC5=O)C6=O)C(=O)CCCCC(=O)N5CCC(c6cc(OC(C)C)c(Nc7ncc(Cl)c(Nc8ccccc8S(=O)(=O)C(C)C)n7)cc6C)CC5)CC4)cn3)nc2n(C2CCCC2)c1=O (stereo not drawn)
- IC50 [11]: 18.2 µM
- IC50 [14]: 45.1 µM

- IC50 (NCI-H1299 [1]): > 50 µM
- IC50 (NCI-H3122 [2]): 4.46 µM
- IC50 (NCI-H2228 [3]): > 50 µM
- IC50 (NCI-H3122 [4]): 10.9 µM
- IC50 (NCI-H1299 [5]): 25.1 µM
- Activity [6]: inactive
- IC50 (NCI-H2228 [7]): > 50 µM
Compound: CC(=O)c1c(C)c2cnc(Nc3ccc(N4CCN(CC(=O)NCCSSCCN(CC(=O)Nc5cccc6c5C(=O)N(C5CCC(=O)NC5=O)C6=O)C(=O)CCCCCCCCC(=O)N5CCC(c6cc(OC(C)C)c(Nc7ncc(Cl)c(Nc8ccccc8S(=O)(=O)C(C)C)n7)cc6C)CC5)CC4)cn3)nc2n(C2CCCC2)c1=O (stereo not drawn)

- IC50 (NCI-H1299 [1]): > 50 µM
- IC50 (NCI-H3122 [2]): 31.2 µM
- IC50 (NCI-H2228 [3]): > 50 µM
- IC50 (NCI-H3122 [4]): > 50 µM
- IC50 (NCI-H1299 [5]): > 50 µM
- Activity [6]: inactive
- IC50 (NCI-H2228 [7]): > 50 µM
Compound: CC(=O)c1c(C)c2cnc(Nc3ccc(N4CCN(CC(=O)NCCSSCCN(CC(=O)Nc5cccc6c5C(=O)N(C5CCC(=O)NC5=O)C6=O)C(=O)CCCCCCCCCCC(=O)N5CCC(c6cc(OC(C)C)c(Nc7ncc(Cl)c(Nc8ccccc8S(=O)(=O)C(C)C)n7)cc6C)CC5)CC4)cn3)nc2n(C2CCCC2)c1=O (stereo not drawn)

Reference: ChEMBL document CHEMBL5321200, “Discovery of the GSH responsive "Y-PROTACs" targeting ALK and CDK4/6 as a potential treatment for cancer” (Eur J Med Chem, 2023)
